Source: patent publication US9365604B2, “Oligomer-nucleoside phosphate conjugates” (NEKTAR THERAPEUTICS, priority 2007, dated 2016)
Like-named read-outs stand apart in the source and are kept apart here.

Columns and labels:
MIA PaCa-2 = experiment: In vitro cytotoxicity assay (CellTiter-Glo); assay type: cell-based; details: for IC50: 72 h exposure, CellTiter-Glo
Protocol: (§1) The objective of these studies were to determine the IC50 values for PEG-floxuridine conjugates against floxuridine-resistant cell lines based on data from previous Xenograft studies. The cells were exposed for 72 h, and cell viability assessed by using the CellTiter-Glo assay.
(§2) The objective of these studies was to determine the IC50 values for PEG-gemcitabine conjugates against gemcitabine-resistant cell lines based on data from previous Xenograft studies. The cells were exposed for 72 h, and cell viability assessed by using the CellTiter-Glo assay.

HCT-116 = experiment: In vitro cytotoxicity assay (CellTiter-Glo); assay type: cell-based; details: for IC50: 72 h exposure, CellTiter-Glo
Protocol: as §1, §2

HT-29 = experiment: In vitro cytotoxicity assay (CellTiter-Glo); assay type: cell-based; details: for IC50: 72 h exposure, CellTiter-Glo
Protocol: as §1, §2

DU145 = experiment: Sulforhodamine B (SRB) growth inhibition assay; assay type: cell-based, Human; details: for ratio vs flox (GI50) DU145: GI50 of conjugate vs floxuridine; for GI50: SRB assay, cells exposed for 24 h, read-out: GI50 values (μM) DU145
Protocol: (§3) The aim was to determine the GI50 values for PEG-floxuridine conjugates against a panel of cell lines, and based on previous data from Xenograft studies. […] The test articles were solubilized in dimethylsulfoxide and were tested at four different molar (M) concentrations; 10^−4, 10^−5, 10^−6, M. GI50 (the concentration needed to reduce the growth of treated cells to half that of untreated control cells) was calculated for each condition ([(Ti−Tz)/(C-Tz)]×100=50, where Ti, Tz, and C refer to absorbance values obtained from each tested concentration, time zero, and control treatment, respectively).
as §3, with “The objective” for “The aim”, “the IC50” for “the GI50”, “for PEG-gemcitabine” for “for PEG-floxuridine”, “in dimethyl sulfoxide” for “in dimethylsulfoxide”, “10^−6, 10^−7” for “10^−6,”, “condition ([(Ti−Tz)/(C−Tz)]×100=50,” for “condition ([(Ti−Tz)/(C-Tz)]×100=50,”

NCI/ADR-RES = experiment: Sulforhodamine B (SRB) growth inhibition assay; assay type: cell-based, Human; details: cells exposed for 24 h, read-out: GI50 values (μM) NCI/ADR-RES
Protocol: (§4) In Vitro Screening of PEG-Gemcitabine Monophosphate in Selected Human Cancer Cell Lines
(§5) The aim was to determine the GI50 values for PEG-floxuridine conjugates against a panel of cell lines, and based on previous data from Xenograft studies. The cells were exposed for 24 h, and cell viability assessed by using the Sulphorhodamine (SRB) assay. The test articles were solubilized in dimethylsulfoxide and were tested at four different molar (M) concentrations; 10^−4, 10^−5, 10^−6, M. GI50 (the concentration needed to reduce the growth of treated cells to half that of untreated control cells) was calculated for each condition ([(Ti−Tz)/(C-Tz)]×100=50, where Ti, Tz, and C refer to absorbance values obtained from each tested concentration, time zero, and control treatment, respectively).
as §5, with “The objective” for “The aim”, “the IC50” for “the GI50”, “for PEG-gemcitabine” for “for PEG-floxuridine”, “in dimethyl sulfoxide” for “in dimethylsulfoxide”, “10^−6, 10^−7” for “10^−6,”, “condition ([(Ti−Tz)/(C−Tz)]×100=50,” for “condition ([(Ti−Tz)/(C-Tz)]×100=50,”

MDCK cells [1] = experiment: Bi-directional permeability in MDCK cells
Excerpt: (§6) Bi-Directional Permeability of PEG-Floxuridine Conjugates in Caco-2 and MDCK Cells

CAKI-1 = experiment: In vitro cytotoxicity assay (CellTiter-Glo); assay type: cell-based; details: for IC50: 72 h exposure, CellTiter-Glo
MCF7 = experiment: Sulforhodamine B (SRB) growth inhibition assay; assay type: cell-based, Human; details: for ratio vs flox (GI50) MCF7: GI50 of conjugate vs floxuridine; for GI50: SRB assay
Protocol: as §4, §3
as §3, with “The objective” for “The aim”, “the IC50” for “the GI50”, “for PEG-gemcitabine” for “for PEG-floxuridine”, “in dimethyl sulfoxide” for “in dimethylsulfoxide”, “10^−6, 10^−7” for “10^−6,”, “condition ([(Ti−Tz)/(C−Tz)]×100=50,” for “condition ([(Ti−Tz)/(C-Tz)]×100=50,”

COLO205 = experiment: Sulforhodamine B (SRB) growth inhibition assay; assay type: cell-based, Human; details: COLO205; SRB assay, cells exposed for 24 h; read-out: GI50 values (μM) COLO205
Protocol: as §4, §3
as §3, with “The objective” for “The aim”, “the IC50” for “the GI50”, “for PEG-gemcitabine” for “for PEG-floxuridine”, “in dimethyl sulfoxide” for “in dimethylsulfoxide”, “10^−6, 10^−7” for “10^−6,”, “condition ([(Ti−Tz)/(C−Tz)]×100=50,” for “condition ([(Ti−Tz)/(C-Tz)]×100=50,”

A2780 = experiment: Sulforhodamine B (SRB) growth inhibition assay; assay type: cell-based, Human; details: for ratio vs flox (GI50) A2780: GI50 of conjugate vs floxuridine; for GI50: SRB assay, cells exposed for 24 h, read-out: GI50 values (μM) A2780
Protocol: as §4, §3
as §3, with “The objective” for “The aim”, “the IC50” for “the GI50”, “for PEG-gemcitabine” for “for PEG-floxuridine”, “in dimethyl sulfoxide” for “in dimethylsulfoxide”, “10^−6, 10^−7” for “10^−6,”, “condition ([(Ti−Tz)/(C−Tz)]×100=50,” for “condition ([(Ti−Tz)/(C-Tz)]×100=50,”

HCT15 = experiment: Sulforhodamine B (SRB) growth inhibition assay; assay type: cell-based, Human; details: SRB assay, cells exposed for 24 h, read-out: GI50 values (μM) HCT15
Protocol: as §4, §3
as §3, with “The objective” for “The aim”, “the IC50” for “the GI50”, “for PEG-gemcitabine” for “for PEG-floxuridine”, “in dimethyl sulfoxide” for “in dimethylsulfoxide”, “10^−6, 10^−7” for “10^−6,”, “condition ([(Ti−Tz)/(C−Tz)]×100=50,” for “condition ([(Ti−Tz)/(C-Tz)]×100=50,”

HT29 = experiment: Sulforhodamine B (SRB) growth inhibition assay; assay type: cell-based, Human; details: for ratio vs flox (GI50) HT29: GI50 of conjugate vs floxuridine; for GI50: SRB assay, cells exposed for 24 h, read-out: GI50 values (μM) HT29
Protocol: as §4, §3
as §3, with “The objective” for “The aim”, “the IC50” for “the GI50”, “for PEG-gemcitabine” for “for PEG-floxuridine”, “in dimethyl sulfoxide” for “in dimethylsulfoxide”, “10^−6, 10^−7” for “10^−6,”, “condition ([(Ti−Tz)/(C−Tz)]×100=50,” for “condition ([(Ti−Tz)/(C-Tz)]×100=50,”

Hop62 = experiment: Sulforhodamine B (SRB) growth inhibition assay; assay type: cell-based, Human; details: for ratio vs flox (GI50) Hop62: GI50 of conjugate vs floxuridine; for GI50: SRB assay, cells exposed for 24 h, read-out: GI50 values (μM) Hop62
Protocol: as §4, §3
as §3, with “The objective” for “The aim”, “the IC50” for “the GI50”, “for PEG-gemcitabine” for “for PEG-floxuridine”, “in dimethyl sulfoxide” for “in dimethylsulfoxide”, “10^−6, 10^−7” for “10^−6,”, “condition ([(Ti−Tz)/(C−Tz)]×100=50,” for “condition ([(Ti−Tz)/(C-Tz)]×100=50,”

Caco-2 cells [2] = experiment: Bi-directional permeability in Caco-2 cells
Excerpt: as §6

Caco-2 cells [3] = test system: Caco-2 cells
Excerpt: as §6

[4] = Bi-directional permeability in MDCK cells; details: dog
Excerpt: as §6

MDCK cells [5] = test system: MDCK cells
Excerpt: as §6

in vitro [6] = details: human, Caco-2
Excerpt: as §6

[7] = Bi-directional permeability in Caco-2 cells; details: human
Excerpt: as §6

in vitro [8] = details: dog, MDCK
Excerpt: as §6

[9] = cells exposed for 24 h, read-out: GI50 values (μM) MCF7

SMILES | Ratio vs floxuridine (IC50) MIA PaCa-2 (MIA PaCa-2) | IC50 (MIA PaCa-2) | Ratio vs floxuridine (IC50) HCT-116 (HCT-116) | IC50 (HCT-116) | Ratio vs floxuridine (IC50) HT-29 (HT-29) | IC50 (HT-29) | ratio vs flox (GI50) DU145 (DU145) | GI50 (DU145) | GI50 (NCI/ADR-RES) | Ratio vs floxuridine (IC50) CAKI-1 (CAKI-1) | IC50 (CAKI-1) | ratio vs flox (GI50) MCF7 (MCF7) | GI50 (MCF7; [9]) | GI50 (COLO205) | ratio vs flox (GI50) A2780 (A2780) | GI50 (A2780) | ratio vs flox (GI50) HT29 (HT29) | GI50 (HT29) | ratio vs flox (GI50) Hop62 (Hop62) | GI50 (Hop62) | further results
COCCOCCOCCOCCOCCOCCOCCOP(=O)(O)OC[C@H]1O[C@@H](n2cc(F)c(=O)[nH]c2=O)C[C@@H]1O [Floxuridine Mono (mPEG7), 5′-floxuridine methoxy hepta(ethylene glycol) phosphate] | 2 | 96 nM | 2 | 48 nM | 1 | 76 nM | 0.005 | 0.13 µM | < 0.1 µM | 1 | 157 nM | 0.9 | 0.13 µM | 1.9 µM | 35 | 2.3 µM | 4 | > 100 µM | 417 | > 100 µM | Papp A -> B (MDCK cells [1]): <0.06 10^−6 cm/s; Papp B -> A (MDCK cells [1]): <0.08 10^−6 cm/s; Significant efflux (MDCK cells [1]): No; percent recovery A -> B (MDCK cells [1]): 100%; percent recovery B -> A (MDCK cells [1]): 90%; GI50 (MCF7; 48 h drug exposure, read-out: GI50 in MCF7): 2.2 µM; GI50 (HCT15): ~32 µM; Papp A -> B (Caco-2 cells [2]): 0.14 10^−6 cm/s; Papp B -> A (Caco-2 cells [2]): 0.06 10^−6 cm/s; Papp B-A/Papp A-B (Caco-2 cells [2]): 0.4; Significant efflux (Caco-2 cells [2]): No; percent recovery A -> B (Caco-2 cells [2]): 79%; percent recovery B -> A (Caco-2 cells [2]): 89%
CCCCCOC(=O)Nc1nc(=O)n([C@@H]2O[C@H](C)[C@@H](O)[C@H]2O)cc1F [Capecitabine] |  |  |  |  |  |  |  |  |  |  |  |  |  |  |  |  |  |  |  |  | Absorption potential (Caco-2 cells [3]): High; Significant efflux (Caco-2 cells [3]): Yes; permeability across Caco-2 monolayers (in words) (Caco-2 cells [3]): high permeability; Papp B-A/Papp A-B (Caco-2 cells [3]; human): 3.9; recovery ([4]; percent recovery A -> B): 104%; recovery ([4]; percent recovery B -> A): 99%; Significant efflux (MDCK cells [5]): No; permeability through MDCK monolayers (in words) (MDCK cells [5]): relatively poor permeability; Papp B-A/Papp A-B (MDCK cells [5]; dog): 0.9; Papp A→B (in vitro [6]): 2.22 ×10⁻⁶ cm/s; Papp B→A (in vitro [6]): 8.71 ×10⁻⁶ cm/s; efflux ratio (in vitro [6]): 3.9; recovery ([7]; Caco-2, percent recovery A -> B): 110%; recovery ([7]; Caco-2, percent recovery B -> A): 99%; Papp A→B (in vitro [8]): 0.16 ×10⁻⁶ cm/s; Papp B→A (in vitro [8]): 0.14 ×10⁻⁶ cm/s; efflux ratio (in vitro [8]): 0.9
COCCOCCOCCOCCOCCOCCOCCOP(=O)(OCCOCCOCCOCCOCCOCCOCCOC)OC[C@H]1O[C@@H](n2cc(F)c(=O)[nH]c2=O)C[C@@H]1O [Floxuridine Di (mPEG7), 5′-floxuridine di-methoxy hepta(ethylene glycol) phosphate] |  |  |  |  |  |  | 4 | > 100 µM |  |  |  | 667 | > 100 µM |  | 1538 | > 100 µM | 4 | > 100 µM | 417 | > 100 µM | 
COCCOCCOCCOP(=O)(OCCOCCOCCOC)OC[C@H]1O[C@@H](n2cc(F)c(=O)[nH]c2=O)C[C@@H]1O [Floxuridine Di (mPEG3), 5′-floxuridine di-methoxy tri(ethylene glycol) phosphate] |  |  |  |  |  |  | 4 | > 100 µM |  |  |  | 667 | > 100 µM |  | 1538 | > 100 µM | 4 | > 100 µM | 417 | > 100 µM | 
COCCOCCOCCOP(=O)(O)OC[C@H]1O[C@@H](n2cc(F)c(=O)[nH]c2=O)C[C@@H]1O [Floxuridine Mono (mPEG3), 5′-floxuridine methoxy tri(ethylene glycol) phosphate] | 1 | 64 nM | 2 | 56 nM | 1 | 87 nM | 0.005 | 0.12 µM | < 0.1 µM | 1 | 145 nM | 0.7 | 0.11 µM | 1.8 µM | 32 | 2.1 µM | 4 | > 100 µM | 417 | > 100 µM | Papp A -> B (Caco-2 cells [3]): <0.19 10^−6 cm/s; Papp B -> A (Caco-2 cells [3]): <0.25 10^−6 cm/s; Significant efflux (Caco-2 cells [3]): No; percent recovery A -> B (Caco-2 cells [3]): 96%; percent recovery B -> A (Caco-2 cells [3]): 94%; Papp A -> B (MDCK cells [5]): <0.06 10^−6 cm/s; Papp B -> A (MDCK cells [5]): <0.07 10^−6 cm/s; Significant efflux (MDCK cells [5]): No; percent recovery A -> B (MDCK cells [5]): 98%; percent recovery B -> A (MDCK cells [5]): 98%; GI50 (HCT15): 32 µM
